From patent publication US20250361267A1, “CHIMERIC COMPOUND FOR DEGRADING CYCLOPHILIN A, PREPARATION METHOD THEREFOR, AND USE THEREOF” (INSTITUTE OF MICROBIOLOGY, CHINESE ACADEMY OF SCIENCES, priority 2022, published 2025)

Tests used:
IBV-induced pneumonia = tested on: IBV-induced pneumonia; design: species or system C57BL/6 mice; settings: mouse, in vivo
A549 cells [1] = assay: Effect on A549 cell activity by CCK-8 method; assay type: cell-based; settings: 0 to 10^5 nM, 12 hours
Experimental: (§1) (1) A549 cells in the logarithmic phase were collected, the concentration of the cell suspension was adjusted, and 100 μL was added per well. The cells to be tested were plated to a density of 10^3 to 10^4 cells/well and incubated at 37° C. under 5% CO2 until the bottom of the wells was covered by a single layer of cells.
(§2) (2) Different concentrations of the compound represented by Formula I were added: 0, 10, 10^2, 10^3, 10^4 and 10^5 nM/well, with 3 replicate wells set, and incubated at 37° C. under 5% CO2 for 12 hours.
(1) 10 μL CCK-8 reagent was added to the above cells in each well and reacted for 2 h.
(2) The incubation was terminated, and the culture medium in the wells was carefully aspirated.
(3) The absorbance of each well was measured using a microplate reader with a wavelength of 450 nm.
(4) The absorbance ratio between the experimental group and the control group was calculated as follows: Cell viability=(Absorbance of the experimental group−Blank control)+ (Absorbance of the control group−Blank control)×100%.

CypA [2] = target: T1, CypA (Homo sapiens, UniProt P62937); assay: CypA degradation in A549 cells by Western Blot; assay type: cell-based; settings: A549 cell line
T1 construct: A549 cells in the logarithmic phase were collected; endogenous in cells; host or cells: A549
T1 sequence (P62937 whole entry): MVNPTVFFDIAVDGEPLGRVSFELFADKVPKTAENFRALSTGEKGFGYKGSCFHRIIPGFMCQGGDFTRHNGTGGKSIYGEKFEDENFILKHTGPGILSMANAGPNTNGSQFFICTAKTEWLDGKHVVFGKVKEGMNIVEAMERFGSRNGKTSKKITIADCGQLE
Experimental: as §1, §2
(1) The treated cells were scraped off from the culture medium, suspended thoroughly, and then collected by centrifugation at 300 g for 5 minutes. After washing with PBS once, the PBS was discarded.
(2) 100 μL of 2× Loading Buffer was added to each sample, shaken thoroughly to mix well, denatured at 100° C. for 5 minutes, and stored at −20° C. after mixing well or directly used for Western Blot detection. The Formula of 5× Loading Buffer was as follows: 250 mM Tris-HCl (pH 6.8), 10% (W/V) SDS, 0.5% (W/V) bromophenol blue, 50% (V/V) glycerol, 5% (W/V) β-mercaptoethanol (2-ME). […]
2) Sample preparation: protein samples were prepared according to experimental requirements, centrifuged, mixed well, and loaded into the loading wells of SDS-PAGE gel. The loading volume was adjusted appropriately according to the protein quantification results. […]

[3] = tested on: IL-1B, TNF-α, IL-6 and IFN-γ; design: species or system C57BL/6 mice; settings: mouse, in vivo
A549 cells [4] = assay: Migration and infiltration of lung cancer cells, Transwell chambers; assay type: cell-based
Experimental: as §1, with “10^3-10^4” for “10^3 to 10^4”
as §2
The upper chamber of a 24-well cell culture insert ([…] pore size) was coated (no migration) or (invasive) with a matrix (1 mg/mL) and dried at 37° C. for 30 min.
(3) A549/WT and A549/CypA-cells were trypsinized, washed and suspended in serum-free DMEM after treatment with 20 ng/ml TGF-β for 48 h.
(1) DMEM containing 10% fetal bovine serum was added to the lower chamber per approximately 5×10^4 cells inserted in the upper chamber.
(2) After incubation for 6 h (migration) or 24 h (invasion), non-migrating or […] cells residing on the upper part of the insert membrane were removed with a cotton swab.
(3) The cells that migrated to the underside of the membrane were fixed and stained with 2% crystal violet in ethanol.
(4) The stained cells were observed and counted under a Japan Olympus CKX41 microscope.

CypA [5] = target: CypA (Mus musculus, UniProt P17742); assay type: in vivo, C57BL/6 mice; settings: IBV-infected mice, 10 mg/kg/day, 7 days after infection
Sequence of CypA (Mus musculus, UniProt P17742) (P17742 whole entry): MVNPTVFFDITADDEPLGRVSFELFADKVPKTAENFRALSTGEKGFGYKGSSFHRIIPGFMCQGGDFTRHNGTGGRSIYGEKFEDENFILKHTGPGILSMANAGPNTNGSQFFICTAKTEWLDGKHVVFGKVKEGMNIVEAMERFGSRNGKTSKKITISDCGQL

rheumatoid arthritis = assay: Rat arthritis model (Freund complete adjuvant); assay type: in vivo, Lewis rats; settings: rats, 10 mg/kg tail vein three times/week
Experimental: The BCG vaccine was inactivated in a water bath at 80° C. for 1 h, ground thoroughly with incomplete Freund adjuvant, and mixed well to prepare 15 mg/mL Freund complete adjuvant (FCA). Lewis rats were divided into 4 groups: blank group (PBS), untreated group (UT), treatment group 1 (compound) and treatment group 2 (MTX (methotrexate)), with 5 rats in each group and a body weight of […]. Except for the PBS group, rats were intradermally injected with 0.1 mL of FCA in the right hind paw. On day 14 after injection, rats in treatment group 1 (compound) were injected with the compound (10 mg/kg of body weight, dissolved in 100 μL of PBS) through the tail vein three times/week; rats in treatment group 2 (MTX (methotrexate)) were intraperitoneally injected with methotrexate (1.2 mg/kg of body weight) three times/week.
The circumference of the metatarsophalangeal joint was measured. The circumference of the ankle joint of the left hind paw (on the secondary lesion side) of all rats was measured once before modeling, before administration and 3 weeks after administration, respectively, and the percentage of joint swelling was calculated.
The joint index was determined by joint swelling score before administration (Day 0) and 3 weeks after administration. Scoring was carried out based on the redness and swelling degree of the ankle and toe joints of the front and rear limbs of rats and the affected joint index, as follows: 0 for normal; 1 for the redness and swelling of one joint; 2 for the redness and swelling of two or more joints; 3 for severe redness and swelling of the paw below the ankle joint; 4 for the redness and swelling of the entire paw including the ankle joint and inability to bear weight. The limbs were scored separately, and the cumulative sum of the scores was the joint index.
(1) On the day 21 of administration, rats were euthanized after blood collection. […]
(2) Joint synovial proliferation and the degree of sub-synovial inflammation were observed under a light microscope, and synovial cell proliferation was scored.

Compound: Cc1ncsc1-c1ccc(C(C)NC(=O)[C@@H]2C[C@@H](O)CN2C(=O)[C@H](NC(=O)COCCCCCOc2cccc(O)c2C(=O)NC(=O)NC2CCCCC2)C(C)(C)C)cc1 (stereo partly drawn) [Formula I]
- lung injury (lung index, pathology, pathological scores) (IBV-induced pneumonia): significantly alleviate lung injury
- cell viability (A549 cells [1]): above 80%
- DC50 (CypA [2]; 12 hours, Western Blot, read-out: half-degradation concentration on CypA): < 100 nM
- degradation effect on the CypA protein (CypA [2]; WB results): clearly observed
- expression of IFN-γ in the lung tissue [3]: significantly reduce
- expression of IL-1B in the lung tissue [3]: significantly reduce
- expression of IL-6 in the lung tissue [3]: significantly reduce
- expression of TNF-α in the lung tissue [3]: significantly reduce
- lung inflammation [3]: alleviating lung inflammation
- infiltration of lung cancer cells (A549 cells [4]; Transwell with matrix, 24 h): significantly reduce
- migration of lung cancer cells (A549 cells [4]; Transwell, 6 h): significantly reduce
- expression of CypA in mouse lung tissue (CypA [5]): significantly reduce
- joint index of the ankle joint (rheumatoid arthritis; 3 weeks after administration): reduce
- joint swelling (rheumatoid arthritis; 3 weeks after administration): significantly relieve
- inflammation of the ankle joint (ankle pathological scores) (rheumatoid arthritis; day 21, HE staining): alleviate
